Data on four compounds can be found in ChEMBL document CHEMBL2176882 (Bioorg Med Chem Lett, 2012).

What is called clearance is the volume of plasma or blood freed of the substance per unit of time. Higher therefore signals efficient removal. The term half-life denotes how long it takes for the measured level to halve. Read a high half-life as slow loss. In general, Vd refers to a proportionality between amount in the body and measured concentration, not a real space. As a reminder, the bioavailability is dose-corrected exposure relative to a reference, in per cent. The low end stands for poor availability, the high end for good availability. The term solubility denotes the concentration that dissolves in the medium under given conditions.

Molecules are shown by their SMILES. Converted amounts (≈) assume the structure as drawn. The source made the active and inactive calls. The calls are words filed in the database; no cut-off is given here.

A short description of data set [1]: Blood clearance in dog. Format: ADME, organism-based, Canis lupus familiaris.
The test system of data set [2] is PBMC. Description: cells. As to conditions: Homo sapiens, read-out: pIC50 (converted).
Description: Antiinflammatory activity in human PBMC assessed as inhibition of LPS-induced IL6 production
Data set [3] has as its system PBMC. Description: Cytotoxicity against human PBMC assessed as decrease in ATP level. It counts as cell-based.
The nature of data set [4]: Fraction unbound in rat blood after 4 hrs by rapid equilibrium dialysis. It counts as ADME, tissue-based. On the technique in general: In equilibrium dialysis only unbound substance equilibrates across the membrane.
In data set [5] the test system is Blood. In words: Antiinflammatory activity in human whole blood assessed as inhibition of LPS-induced TNFalpha production. It counts as functional, tissue-based.
Data set [6] concerns Escherichia coli. Description: Mutagenicity against Escherichia coli WP2uvrA by AMES test in presence of S9 fraction. It counts as toxicity, organism-based.
The next data set relates to HepG2. In words: Inhibition of BET in human HepG2 cells assessed as upregulation of ApoA1 after 18 hrs by luciferase reporter gene assay. It counts as cell-based.
The nature of data set [7]: Half life in dog. Format: ADME, organism-based, Canis lupus familiaris. As to conditions: in vivo.
Data set [8] can be described thus: Volume of distribution in rat. Format: ADME, organism-based. Particulars: in vivo.
The nature of data set [9]: Volume of distribution in dog. Format: ADME, organism-based, Canis lupus familiaris. Particulars: in vivo.
A further data set deals with Cytochrome P450 2C19 (Homo sapiens, UniProt P33261). Description: Inhibition of CYP2C19. It counts as ADME.
The nature of data set [10]: Oral bioavailability in dog. It counts as ADME, organism-based, Canis lupus familiaris. Particulars: in vivo.
For data set [11], the target named is 3',5'-cyclic-AMP phosphodiesterase 4B (Homo sapiens, UniProt Q07343). In words: Inhibition of PDE4B.
Data set [12] deals with Bromodomain-containing protein 3 (Homo sapiens, UniProt Q15059). In words: Binding affinity to BRD3 assessed as inhibition of Alexa Fluor 488 binding after 60 mins by fluorescence anisotropic analysis.
In data set [13] the test system is Blood. In words: Antiinflammatory activity in human whole blood assessed as inhibition of LPS-induced IL12p70 production. Format: functional, tissue-based.
The test system of data set [14] is Salmonella typhimurium. Description: Mutagenicity against Salmonella typhimurium TA1537 by AMES test in presence of S9 fraction. Format: toxicity, organism-based. Particulars: salmonella enterica subsp. enterica serovar typhimurium.
The test system of data set [15] is Escherichia coli. Description: Mutagenicity against Escherichia coli WP2uvrA by AMES test in absence of S9 fraction. It counts as toxicity, organism-based.
Data set [16] in a line: Fraction unbound in dog blood after 4 hrs by rapid equilibrium dialysis. It counts as ADME, tissue-based, Canis lupus familiaris.
Data set [17] addresses Bromodomain-containing protein 4 (Homo sapiens, UniProt O60885). In words: Binding affinity to BRD4 assessed as inhibition of Alexa Fluor 488 binding after 60 mins by fluorescence anisotropic analysis.
Data set [18] deals with Salmonella typhimurium. In words: Mutagenicity against Salmonella typhimurium TA1537 by AMES test in absence of S9 fraction. As to conditions: salmonella enterica subsp. enterica serovar typhimurium. It counts as toxicity, organism-based.
The subject of data set [19] is Blood. In words: Antiinflammatory activity in human whole blood assessed as inhibition of LPS-induced IL10 production. It counts as functional, tissue-based.
The target of data set [20] is Bromodomain-containing protein 2 (Homo sapiens, UniProt P25440). Description: Binding affinity to human BRD2 assessed as inhibition of Alexa Fluor 488 binding after 60 mins by fluorescence anisotropic analysis.
Data set [21] is described as follows: Fraction unbound in human blood after 4 hrs by rapid equilibrium dialysis. Format: ADME, tissue-based.
Data set [22] concerns Blood. Description: Antiinflammatory activity in human whole blood assessed as inhibition of LPS-induced IFNgamma production. Format: functional, tissue-based.
The nature of data set [23]: Fraction unbound in mouse blood after 4 hrs by rapid equilibrium dialysis. It counts as ADME, tissue-based.
The subject of data set [24] is Blood. Description: Antiinflammatory activity in human whole blood assessed as inhibition of LPS-induced IL8 production. It counts as functional, tissue-based.
Data set [25] relates to Mus musculus. Description: Antiinflammatory activity in mouse endotoxaemia model assessed as protection against LPS-induced mortality at 10 mg/kg, iv administered 90 mins post LPS challenge measured up to 4 days. Format: functional, organism-based. Further details: dose 10 mg/kg.
For data set [26], the system named is Salmonella typhimurium. Description: Mutagenicity against Salmonella typhimurium TA98 by AMES test in presence of S9 fraction. Format: toxicity, organism-based. As to conditions: salmonella enterica subsp. enterica serovar typhimurium.
Data set [27] in a line: Volume of distribution in mouse. It counts as ADME, organism-based. Particulars: in vivo.
The nature of data set [28]: Blood clearance in mini pig. Format: ADME, organism-based, Sus scrofa.
The nature of data set [29]: Half life in mini pig. It counts as ADME, organism-based, Sus scrofa. As to conditions: in vivo.
The subject of data set [30] is Salmonella typhimurium. In words: Mutagenicity against Salmonella typhimurium TA1535 by AMES test in absence of S9 fraction. Format: toxicity, organism-based. As to conditions: salmonella enterica subsp. enterica serovar typhimurium.
The subject of data set [31] is Salmonella typhimurium. In words: Mutagenicity against Salmonella typhimurium TA100 by AMES test in absence of S9 fraction. It counts as toxicity, organism-based. Particulars: salmonella enterica subsp. enterica serovar typhimurium.
In data set [32] the test system is Mus musculus. In words: Antiinflammatory activity in mouse endotoxaemia model assessed as protection against LPS-induced mortality at 10 mg/kg, iv administered 1 hr prior to LPS challenge measured up to 4 days. It counts as functional, organism-based. Further details: dose 10 mg/kg.
Data set [33] has as its system Mus musculus. Description: Antiinflammatory activity in mouse endotoxaemia model assessed as inhibition of LPS-induced IL6 production at 10 mg/kg, iv administered 1 hr prior to LPS challenge measured after 90 mins by ELISA relative to vehicle-treated control. Further details: dose 10 mg/kg. Format: functional, organism-based. (ELISA stands for enzyme-linked immunosorbent assay.)

The test system of data set [34] is Salmonella typhimurium. Description: Mutagenicity against Salmonella typhimurium TA98 by AMES test in absence of S9 fraction. It counts as toxicity, organism-based. As to conditions: salmonella enterica subsp. enterica serovar typhimurium.
Data set [35] in a line: Oral bioavailability in mini pig. Particulars: in vivo. It counts as ADME, organism-based, Sus scrofa.
Data set [36] in a line: Volume of distribution in mini pig. It counts as ADME, organism-based, Sus scrofa. As to conditions: in vivo.
The subject of data set [37] is Salmonella typhimurium. Description: Mutagenicity against Salmonella typhimurium TA100 by AMES test in presence of S9 fraction. It counts as toxicity, organism-based. As to conditions: salmonella enterica subsp. enterica serovar typhimurium.
In data set [38] the test system is Salmonella typhimurium. In words: Mutagenicity against Salmonella typhimurium TA1535 by AMES test in presence of S9 fraction. Format: toxicity, organism-based. As to conditions: salmonella enterica subsp. enterica serovar typhimurium.
For data set [39], the system named is Mus musculus. In words: Antiinflammatory activity in mouse endotoxaemia model assessed as inhibition of LPS-induced TNFalpha production at 0.1 to 30 mg/kg, iv administered 1 hr prior to LPS-challenge measured after 90 mins by ELISA relative to vehicle-treated control. It counts as functional, organism-based.
Data set [40] can be described thus: Blood clearance in mouse. It counts as ADME, organism-based.
Another data set addresses Albumin (Homo sapiens, UniProt P02768). In words: Binding affinity to human serum albumin. It counts as ADME. Particulars: read-out: PB (converted).
Another data set concerns the target Cytochrome P450 2C9 (Homo sapiens, UniProt P11712). In words: Inhibition of CYP2C9. Format: ADME.
Data set [41] in a line: Aqueous solubility of the compound at pH 5. Format: physicochemical. Particulars: aqueous medium.
The target of a further data set is Cytochrome P450 3A4 (Homo sapiens, UniProt P08684). Description: Inhibition of CYP3A4 using diethoxyfluoresin as substrate. Format: ADME.
Sequence of Cytochrome P450 3A4 (P08684 whole entry): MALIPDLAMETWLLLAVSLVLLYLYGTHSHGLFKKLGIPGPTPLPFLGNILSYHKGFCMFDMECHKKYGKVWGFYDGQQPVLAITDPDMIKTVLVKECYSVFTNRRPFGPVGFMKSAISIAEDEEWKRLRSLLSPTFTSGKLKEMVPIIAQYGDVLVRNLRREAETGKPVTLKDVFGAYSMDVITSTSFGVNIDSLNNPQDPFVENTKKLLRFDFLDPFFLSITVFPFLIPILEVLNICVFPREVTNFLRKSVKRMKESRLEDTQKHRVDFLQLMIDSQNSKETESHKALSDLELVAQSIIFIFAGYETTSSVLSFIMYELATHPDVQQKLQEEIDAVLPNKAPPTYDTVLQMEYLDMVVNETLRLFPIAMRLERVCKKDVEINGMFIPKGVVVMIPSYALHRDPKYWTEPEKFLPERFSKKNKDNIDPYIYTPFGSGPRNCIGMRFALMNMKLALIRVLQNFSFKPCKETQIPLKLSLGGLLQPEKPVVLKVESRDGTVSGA

Sequence of Bromodomain-containing protein 2 (P25440 whole entry): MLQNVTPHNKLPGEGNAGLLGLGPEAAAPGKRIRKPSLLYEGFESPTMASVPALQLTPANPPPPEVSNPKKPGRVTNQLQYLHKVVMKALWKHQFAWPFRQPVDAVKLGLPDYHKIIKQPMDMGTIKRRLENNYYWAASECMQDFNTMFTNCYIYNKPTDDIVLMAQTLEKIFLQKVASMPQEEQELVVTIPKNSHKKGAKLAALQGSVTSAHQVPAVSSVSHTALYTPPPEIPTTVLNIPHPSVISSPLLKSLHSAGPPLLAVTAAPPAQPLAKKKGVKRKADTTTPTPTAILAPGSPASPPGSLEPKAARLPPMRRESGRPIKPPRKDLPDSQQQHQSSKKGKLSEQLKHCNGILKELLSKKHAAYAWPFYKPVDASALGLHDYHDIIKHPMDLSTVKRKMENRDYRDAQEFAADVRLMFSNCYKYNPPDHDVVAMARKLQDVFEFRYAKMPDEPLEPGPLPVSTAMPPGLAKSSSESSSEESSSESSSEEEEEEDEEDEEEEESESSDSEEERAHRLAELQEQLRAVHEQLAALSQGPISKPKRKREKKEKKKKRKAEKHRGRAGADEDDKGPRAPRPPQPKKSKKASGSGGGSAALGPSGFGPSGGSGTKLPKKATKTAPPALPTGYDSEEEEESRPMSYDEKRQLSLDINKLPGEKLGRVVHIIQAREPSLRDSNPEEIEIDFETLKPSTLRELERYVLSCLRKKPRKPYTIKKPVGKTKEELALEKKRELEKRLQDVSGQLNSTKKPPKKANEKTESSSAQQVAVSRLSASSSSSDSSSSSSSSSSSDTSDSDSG
Sequence of Bromodomain-containing protein 3 (Q15059 whole entry): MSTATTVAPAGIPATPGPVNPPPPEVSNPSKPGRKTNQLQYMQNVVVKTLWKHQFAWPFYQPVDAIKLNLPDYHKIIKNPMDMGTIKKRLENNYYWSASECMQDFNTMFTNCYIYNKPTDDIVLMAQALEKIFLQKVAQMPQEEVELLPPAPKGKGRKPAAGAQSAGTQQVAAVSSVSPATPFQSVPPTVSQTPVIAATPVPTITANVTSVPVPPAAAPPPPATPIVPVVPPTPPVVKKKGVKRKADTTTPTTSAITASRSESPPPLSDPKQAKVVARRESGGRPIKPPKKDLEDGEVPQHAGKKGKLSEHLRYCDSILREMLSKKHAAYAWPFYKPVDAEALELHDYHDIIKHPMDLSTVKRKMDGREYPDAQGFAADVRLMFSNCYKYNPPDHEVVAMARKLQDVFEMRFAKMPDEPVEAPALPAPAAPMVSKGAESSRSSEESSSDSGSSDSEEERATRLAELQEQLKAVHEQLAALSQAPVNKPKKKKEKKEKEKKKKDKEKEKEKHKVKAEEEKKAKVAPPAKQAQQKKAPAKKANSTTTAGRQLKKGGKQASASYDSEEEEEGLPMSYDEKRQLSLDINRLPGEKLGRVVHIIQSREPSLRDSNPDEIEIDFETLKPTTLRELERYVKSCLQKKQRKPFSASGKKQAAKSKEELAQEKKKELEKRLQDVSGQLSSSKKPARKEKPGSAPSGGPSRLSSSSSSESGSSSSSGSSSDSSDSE
Sequence of 3',5'-cyclic-AMP phosphodiesterase 4B (Q07343 whole entry): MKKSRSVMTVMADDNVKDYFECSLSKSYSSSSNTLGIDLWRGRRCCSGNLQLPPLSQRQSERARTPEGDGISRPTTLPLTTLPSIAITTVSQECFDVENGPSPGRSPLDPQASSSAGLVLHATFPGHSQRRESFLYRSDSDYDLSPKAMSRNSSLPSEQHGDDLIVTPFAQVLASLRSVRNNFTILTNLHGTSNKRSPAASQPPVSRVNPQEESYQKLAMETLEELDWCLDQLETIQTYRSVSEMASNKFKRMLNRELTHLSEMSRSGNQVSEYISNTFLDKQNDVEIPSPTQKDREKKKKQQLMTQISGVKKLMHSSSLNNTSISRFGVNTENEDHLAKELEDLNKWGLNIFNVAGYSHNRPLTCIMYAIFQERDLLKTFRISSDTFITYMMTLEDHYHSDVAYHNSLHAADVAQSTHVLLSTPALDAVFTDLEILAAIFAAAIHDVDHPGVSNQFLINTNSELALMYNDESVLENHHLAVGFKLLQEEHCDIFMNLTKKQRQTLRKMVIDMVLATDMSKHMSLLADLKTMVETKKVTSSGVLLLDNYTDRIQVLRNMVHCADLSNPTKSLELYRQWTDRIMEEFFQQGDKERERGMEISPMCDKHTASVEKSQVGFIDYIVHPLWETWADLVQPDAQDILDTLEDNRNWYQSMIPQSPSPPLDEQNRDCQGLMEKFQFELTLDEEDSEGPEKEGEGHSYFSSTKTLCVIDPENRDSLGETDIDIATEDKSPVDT
Sequence of Cytochrome P450 2C19 (P33261 whole entry): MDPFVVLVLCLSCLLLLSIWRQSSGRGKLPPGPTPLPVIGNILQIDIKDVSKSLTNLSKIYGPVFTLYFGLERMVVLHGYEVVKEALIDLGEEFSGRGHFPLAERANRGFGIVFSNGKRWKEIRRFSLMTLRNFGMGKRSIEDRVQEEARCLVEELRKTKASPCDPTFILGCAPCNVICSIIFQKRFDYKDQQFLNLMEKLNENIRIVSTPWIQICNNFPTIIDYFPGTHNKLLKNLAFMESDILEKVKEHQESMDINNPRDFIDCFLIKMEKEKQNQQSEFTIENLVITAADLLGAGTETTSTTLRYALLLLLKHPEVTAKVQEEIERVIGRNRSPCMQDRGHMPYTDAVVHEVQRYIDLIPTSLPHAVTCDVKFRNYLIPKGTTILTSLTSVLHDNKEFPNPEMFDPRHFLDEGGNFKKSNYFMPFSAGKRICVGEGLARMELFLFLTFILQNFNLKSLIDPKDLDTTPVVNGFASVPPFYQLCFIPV
Sequence of Albumin (P02768 whole entry): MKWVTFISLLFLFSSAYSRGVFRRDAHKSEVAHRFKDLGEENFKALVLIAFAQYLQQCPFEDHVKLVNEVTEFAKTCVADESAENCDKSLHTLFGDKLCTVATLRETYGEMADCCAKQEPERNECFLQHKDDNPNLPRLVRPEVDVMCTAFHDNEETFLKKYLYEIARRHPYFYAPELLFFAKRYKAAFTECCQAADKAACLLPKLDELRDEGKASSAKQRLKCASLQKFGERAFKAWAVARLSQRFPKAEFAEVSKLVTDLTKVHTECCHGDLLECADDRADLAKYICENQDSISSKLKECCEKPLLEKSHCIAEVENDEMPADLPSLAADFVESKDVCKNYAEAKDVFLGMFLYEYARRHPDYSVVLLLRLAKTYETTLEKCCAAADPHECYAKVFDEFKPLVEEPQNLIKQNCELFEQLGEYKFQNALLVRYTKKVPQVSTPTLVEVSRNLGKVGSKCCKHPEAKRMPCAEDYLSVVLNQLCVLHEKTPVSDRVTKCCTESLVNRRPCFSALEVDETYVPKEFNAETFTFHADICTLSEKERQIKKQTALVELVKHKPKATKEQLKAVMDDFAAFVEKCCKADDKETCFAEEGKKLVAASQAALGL
Sequence of Cytochrome P450 2C9 (P11712 whole entry): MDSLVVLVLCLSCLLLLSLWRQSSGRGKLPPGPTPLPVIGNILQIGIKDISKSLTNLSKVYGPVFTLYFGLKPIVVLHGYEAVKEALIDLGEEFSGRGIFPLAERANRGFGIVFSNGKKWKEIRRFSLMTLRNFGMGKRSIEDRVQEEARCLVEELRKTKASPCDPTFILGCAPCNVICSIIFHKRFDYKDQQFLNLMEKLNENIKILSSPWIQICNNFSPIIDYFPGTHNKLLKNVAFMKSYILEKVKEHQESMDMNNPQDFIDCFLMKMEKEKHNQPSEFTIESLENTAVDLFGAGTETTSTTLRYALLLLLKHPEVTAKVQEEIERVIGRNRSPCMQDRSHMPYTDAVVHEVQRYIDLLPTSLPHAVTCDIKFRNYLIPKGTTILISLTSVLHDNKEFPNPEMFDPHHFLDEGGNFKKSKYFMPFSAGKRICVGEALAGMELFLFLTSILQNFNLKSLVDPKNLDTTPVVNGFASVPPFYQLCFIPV

On to `COc1cc2c(Nc3cccc4cccnc34)c(C(N)=O)cnc2cc1-c1c(C)noc1C`, for which, in data set [1], the clearance was determined as 12 mL/min/kg. In addition, the IC50 was 100 nM in the data set on PBMC [2]; 5500 nM at Cytochrome P450 2C19; 50.1 nM in data set [11]; 501 nM in data set [12]; 794 nM in [17]; 1000 nM in data set [20]. In addition, the Activity entry is listed as “Non-toxic” in the data set with PBMC [3]; “Toxic” with Escherichia coli [6]; “Toxic” in the data set on Salmonella typhimurium [14]; “Toxic” with Escherichia coli [15]; “Toxic” with Salmonella typhimurium [18]. Further, the fraction unbound at 4 h turned out to be 0.025 in data set [4], 0.01 in [16], 0.04 in data set [21] and 0.015 in [23]. The outcome with Blood [5] and with Blood [19] was Active. Moreover, the pEC170 with HepG2 stood at 6.7. For the same compound, the half-life in [7] was 1.3 h. In addition, the Vd in [8] was 4.1 L/kg; in data set [9], 1.3 L/kg. The same compound returned a bioavailability in data set [10] of 52%. For the same compound, the result with Blood [13], in the data set with Blood [22] and with Blood [24] was inactive.
For the compound `COc1cc2c(cc1-c1c(C)noc1C)ncc1[nH]c(=O)n([C@H](C)c3ccccn3)c12`, the result in the data set on Mus musculus [25], with Blood [5], in the data set on Mus musculus [32] and with Blood [19] was Active. For the same compound, the Activity entry with Salmonella typhimurium [26], with PBMC [3], in the data set on Escherichia coli [6], with Salmonella typhimurium [30], with Salmonella typhimurium [31] and in the data set on Salmonella typhimurium [34] was “Non-toxic” each time. Also, the Activity entry in the data set with Salmonella typhimurium [14], in the data set with Escherichia coli [15], in the data set with Salmonella typhimurium [18], in the data set on Salmonella typhimurium [37] and with Salmonella typhimurium [38] was “Non-toxic” each time. Besides, the clearance in [1] amounted to 38 mL/min/kg; in [28], 15 mL/min/kg; in [40] it was 8 mL/min/kg. Moreover, the IC50 was 200 nM with PBMC [2] and 3980 nM in [11]. The fraction unbound at 4 h in [4] is 0.06; in data set [16] it was 0.09; in data set [21], 0.05; in data set [23] it was 0.03. Moreover, the volume of distribution (Vd) is 1.2 L/kg in [27], 3 L/kg in data set [9] and 1.6 L/kg in [36]. In addition, the half-life in data set [29] and in data set [7] was 1.2 h throughout. Moreover, the pEC170 with HepG2 is 7. In addition, the inhibition result with Mus musculus [33] is “Active”. Besides, the bioavailability in data set [10] amounted to 16%; in data set [35], 65%. The result with Blood [13], in the data set with Blood [22] and with Blood [24] was inactive. Besides, in the data set on Mus musculus [39], the inhibition entry is “inactive”.
On to `COc1cc2c(cc1-c1c(C)noc1C)ncc1[nH]c(=O)n(-c3ccccc3C(C)(C)C)c12`, for which the Activity entry with PBMC [3] is recorded as “Non-toxic”. Moreover, the outcome in the data set with Blood [5] and in the data set on Blood [19] was Active. For the same compound, the pEC170 in the data set on HepG2 is 7.3. Also, the fraction unbound on Albumin is 0.023. Moreover, the IC50 in data set [12] is 398 nM; in data set [17], 501 nM; in data set [20], 501 nM. In addition, the result in the data set with Blood [13], in the data set with Blood [22] and in the data set with Blood [24] was inactive.
Regarding `COc1cc2c(NC3CCCCC3)c(C(N)=O)cnc2cc1-c1c(C)noc1C`, the IC50 with PBMC [2] was 1000 nM; at Cytochrome P450 2C9 it was 4300 nM; in data set [12], 501 nM; in data set [17], 1260 nM; in data set [20] it was 2000 nM; against Cytochrome P450 3A4, 6100 nM. The Activity entry in the data set on PBMC [3] is listed as “Non-toxic”. Further, the result in the data set with Blood [5] and in the data set on Blood [19] was Active. For the same compound, the pEC170 in the data set with HepG2 was 6.4. Besides, the concentration in solution in data set [41] (solubility) came to 236 µg/mL (≈ 598 µM). In addition, the result with Blood [13], in the data set with Blood [22] and in the data set on Blood [24] was inactive.
